Blank lines part the entries; values can stand above or below the molecule they belong to. Ends that are not written are not given here. * marks the point of attachment. FITC = O=C1OC2(c3ccc(O)cc3Oc3cc(O)ccc32)c2ccc(NC(=S)*)cc21
Experiments:
[1] = tested on: atherosclerotic plaque tissues; test: In vivo atherosclerotic targeting of fluorescent dye-conjugated peptide (fluorescence microscopy of frozen sections); details: atherosclerosis-induced mice; final blood concentration 50 μM via left ventricle, circulation 15 min
From the text: C57BL/6 mice (Ldlr−/−) into which deficiency of a low-density lipoprotein (LDL) receptor was introduced by a genetic engineering technique were fed daily for 10 weeks with 3 g of high-cholesterol diet, thereby inducing atherosclerosis in animals. The high-cholesterol diet was a special animal feed containing 1.25% cholesterol, 15% fat and 0.5% cholate (Oriental Yeast Co., Japan).
Here, the peptide was synthesized by tagging an N-terminus of the peptide with FITC (fluorescein isothiocyanate) as a green fluorescent dye. The synthesized FITC-CRKRLDRNC peptide and a control peptide (FITC-NSSVDK) at final blood concentrations of 50 μM were injected into the atherosclerosis-induced mice via the left ventricle of animals, followed by circulation for 15 min. Thereafter, the aortae were removed from each mouse, and frozen sections were prepared, followed by Oil Red O (fat marker, Sigma-Aldrich, USA) staining or vWF (vascular endothelial cell marker, 1:5000 dilution, Abcam, USA) and Mac-3 (macrophage marker, 1:50 dilution, BD, USA) staining (Matter et al., Circulation Research, 95:1225-1233, 2004). In order to stain nuclei in tissues, a mounting medium containing a nuclear staining dye, 4′,6-diamidino-2-phenylindole (DAPI) (manufactured by Molecular Probe, USA) was treated on a slide, according to a conventional method known in the art, followed by fluorescence microscopic examination.

[2] = target: T1, IL-4R (Homo sapiens, UniProt P24394); test: Bindability of peptide to IL-4R-expressing CHO-K1 cells (fluorescence microscopy); type: binding; details: 10 μM peptide, room temperature, 1 hour
T1 sequence (P24394 26-825): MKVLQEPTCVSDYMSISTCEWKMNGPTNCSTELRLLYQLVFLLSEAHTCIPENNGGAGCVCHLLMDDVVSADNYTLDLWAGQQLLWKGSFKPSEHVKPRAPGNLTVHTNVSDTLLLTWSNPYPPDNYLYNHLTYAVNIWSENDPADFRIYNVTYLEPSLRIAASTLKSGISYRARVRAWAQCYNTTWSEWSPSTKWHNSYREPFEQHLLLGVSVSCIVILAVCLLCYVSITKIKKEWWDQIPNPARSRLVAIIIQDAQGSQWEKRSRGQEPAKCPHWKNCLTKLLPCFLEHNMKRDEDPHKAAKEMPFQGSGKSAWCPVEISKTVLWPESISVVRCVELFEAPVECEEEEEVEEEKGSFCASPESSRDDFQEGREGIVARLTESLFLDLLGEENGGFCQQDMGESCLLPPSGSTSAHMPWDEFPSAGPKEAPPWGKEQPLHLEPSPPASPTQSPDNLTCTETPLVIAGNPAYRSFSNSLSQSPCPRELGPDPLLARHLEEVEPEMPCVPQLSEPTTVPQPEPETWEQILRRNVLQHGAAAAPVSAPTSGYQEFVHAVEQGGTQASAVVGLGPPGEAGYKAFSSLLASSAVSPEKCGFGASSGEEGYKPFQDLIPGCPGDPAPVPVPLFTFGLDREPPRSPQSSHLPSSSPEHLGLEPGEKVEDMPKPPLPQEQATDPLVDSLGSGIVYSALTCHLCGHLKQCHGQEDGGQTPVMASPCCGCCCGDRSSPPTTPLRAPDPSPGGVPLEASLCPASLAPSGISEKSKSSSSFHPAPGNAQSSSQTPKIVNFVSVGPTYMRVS
From the text: In order to further confirm roles of IL-4R as the receptor for the peptide of the present invention, a plasmid capable of expressing IL-4R (Cat. #TC119877, Origene, USA) was introduced into IL-4R-deficient CHO-K1 cells according to a conventional method known in the art, followed by expression of IL-4R, and binding of IL-4R with the peptide of the present invention was examined.
The cells were stained with antibodies (1:200 dilution) directed against. IL-4R and cell nuclei were stained with DAPI, followed by fluorescence microscopic examination. As a result, a large amount of IL-4R (red fluorescence) was present on the cell surface (FIG. 6B). Next, CHO-K1 and CHO-K1/IL-4R cells were reacted with 10 μM of the FITC-C-RKRLDRNC peptide at room temperature for 1 hour.

[3] = target: T1, IL-4R; test: Bindability of peptide to HT-1376 cells with inhibited expression of IL-4R (siRNA); type: binding; design: HT-1376 cells that essentially show constitutive expression of IL-4R; endogenous in cells; host or cells: HT-1376; details: same conditions as in FIG. 6 (10 μM, room temperature, 1 hour)
Protocol: Silencing RNA for IL-4R (Cat. #16708A, Ambion, USA) was introduced into HT-1376 cells that essentially show constitutive expression of IL-4R, according to a conventional method known in the art, and treated for 24 hours to thereby result in substantially no expression of IL-4R, followed by evaluation of peptide binding. More specifically, 10 nM of IL-4R silencing RNA synthesized by the manufacturer was mixed with a siPORT™ NeoFX™ lipid transfection agent (Ambion, USA), and the mixture was treated for 24 hours on HT-1376 cells grown in a 4-well chamber slide, such that IL-4R silencing RNA is incorporated into the cells. Thereafter, the culture medium was replaced with one containing 10% bovine serum and the cells were recovered for 24 hours. After staining of cells with IL-4R antibodies and nuclear DAPI staining under the same conditions as in FIG. 6, a cellular expression level of IL-4R was examined. After IL-4R staining, the FITC-CRKRLDRNC peptide was reacted with the cells under the same conditions as in FIG. 6, and a binding degree of the peptide was measured.

[4] = tested on: IL-4-induced phosphorylation of STAT6; test: IL-4-induced phosphorylation of STAT6 in THP1 monocytes differentiated into macrophages (Western blot); type: cell-based
Protocol: (§1) THP1 monocytes were treated and activated with 100 ng/mL of phorbol myristate acetate (PMA) for 3 days to thereby induce differentiation into macrophages. The culture medium was replaced with a serum-free fresh medium, and the cells were cultured for 18 hours and treated with 0.67 nM of IL-4 alone for 10 min. Meanwhile, the peptide of the present invention alone or in conjunction with IL-4 was treated at concentrations of 0.67 nM (1×, one-fold concentration that of IL-4), 6.7 nM (10×, 10-fold concentration that of IL-4) and 67 nM (100×, 100-fold concentration that of IL-4) on cells which are under the same culture phase. After the reaction was complete, cells were disrupted according to a conventional method known in the art and cell lysates were subjected to electrophoresis and Western blot analysis using antibodies. As assay antibodies, STAT6 antibody and phospho-STAT6 (P-STAT6) antibody (Cell Signaling, USA), AKT antibody and phosphor-Thr308-AKT antibody or phosphor-Ser473 AKT antibody (Santa Cruz, USA) and β-actin antibody were used.

[5] = tested on: aortic atherosclerotic plaques; test: In vivo atherosclerotic targeting of selected phage clones (phage titer recovered from aorta); design: species or system mice; details: tested as phage clone; SEQ ID NO: 1 versus SEQ ID NO: 2
Protocol: C57BL/6 mice (Ldlr−/−) into which deficiency of a low-density lipoprotein (LDL) receptor was introduced by a genetic engineering technique were fed daily for 10 weeks with 3 g of high-cholesterol diet, thereby inducing atherosclerosis in animals.
Thereafter, aorta were removed from each mouse and aortic tissues were ground to collect cells. The cells were treated with 100 μl of DMEM containing 1% NP-40 at 4° C. for 10 min, and 900 μl of BL21 E. coli culture as a host was then added to recover cell-bound phages. The recover phages were subjected to titer determination by a conventional method known in the art.

[6] = tested on: IL-4-induced phosphorylation of AKT; test: IL-4-induced Thr308 and Ser473 phosphorylation of AKT in THP1 monocytes differentiated into macrophages (Western blot); type: cell-based
Protocol: as §1

[7] = tested on: atherosclerotic plaque tissues; test: In vivo atherosclerotic targeting of radioisotope-conjugated peptide (autoradiography of aortae); design: species or system mice; details: tail vein, circulation 15 min
Protocol: In order to evaluate in vivo targetability of an inventive peptide through a higher sensitivity method, the peptide was synthesized and then an N-terminus of the peptide was tagged with a radioisotope (^111In). The ^111In-tagged peptide of the present invention at a dose of 160 μCi was injected via the tail vein into the blood of atherosclerotic mice and normal mice, followed by circulation for 15 min. Thereafter, aortae were removed from each mouse and autoradiography with X-ray film exposure was carried out. As a control group, the ^123I-tagged peptide (^123I-CLEVSRKNC) was injected at a dose of 104 μCi.

[8] = peptide at 100-fold concentration

binding to CHO-K1/IL-4R cells (IL-4R-expressing) [2]: no binding | binding to HT-1376 cells (constitutive expression of IL-4R) [3]: almost no binding
Molecule: FITC-NSSVDK ({FITC}-NSSVDK) [FITC-labeled control peptide, reference compound]
peptide found in aortic atherosclerotic plaque tissues (green fluorescence) [1]: substantially no control peptide was found

Molecule: CRKRLDRNC (peptide 1, completely synthesized) [peptide of the present invention]
effect on IL-4-induced phosphorylation of STAT6 ([4]; peptide at 100-fold concentration that of IL-4 (67 nM) with 0.67 nM IL-4): significant inhibitory effects | amount of total STAT6 proteins ([4]; peptide with IL-4): not affected | atherosclerotic targeting, comparison of the two selected phage clones [5]: more intense atherosclerotic targeting | antagonistic effect on Ser473 phosphorylation of AKT relative to Thr308 [6, 8]: greater antagonistic effects | level of Ser473 phosphorylation of AKT versus control group not treated with IL-4 [6, 8]: inhibited to a lower level than that of the control group | effect on IL-4-induced phosphorylation of AKT (Thr308 and Ser473) ([6]; peptide at 100-fold concentration (67 nM) with 0.67 nM IL-4): inhibited

Molecule: ^123I-CLEVSRKNC (not fully specified (N-terminus); cysteine pairing not given here; also: 123I label, attachment not given here) [123I-tagged control peptide for autoradiography]
radioactivity resulting from aortic targeting of the peptide ([7]; aortae of atherosclerotic mice, 160 μCi (111In peptide) or 104 μCi (123I control)): substantially no detection of radioactivity | radioactivity resulting from aortic targeting of the peptide ([7]; aortae of normal mice, 104 μCi (123I control)): substantially no detection of radioactivity

B1: IL-4: cytokine used as stimulus of STAT6 and AKT phosphorylation (protein)
chain: HKCDITLQEIIKTLNSLTEQKTLCTELTVTDIFAASKNTTEKETFCRAATVLRQFYSHHEKDTRCLGATAQQFHRHKQLIRFLKRLDRNLWGLAGLNSCPVKEANQSTLENFLERLKTIMREKYSKCSS
phosphorylation of STAT6 induced by IL-4 ([4]; 0.67 nM IL-4 alone, 10 min): significant increase | Thr308 and Ser473 phosphorylation of AKT induced by IL-4 ([6]; 0.67 nM IL-4, 10 min): slightly increased

— patent publication US7968081B2, “Peptide for diagnosing, preventing and treating atherosclerosis and uses thereof” (Kyungpook National University Industry—Academic Cooperation …, priority 2007, dated 2011)
